The compounds below were run against HSD17B13 (Homo sapiens (Human), UniProt Q7Z5P4) (assay: HSD17B13 enzymatic inhibition assay (150 nM or 50 nM HSD17B13)). Conditions: 50 nM HSD17B13; read-out: Inhibition of 50 nM of HSD17B13 IC50.
Type: biochemical

Sequence of HSD17B13 (Q7Z5P4 other isoform, or with tags, fused parts or gaps): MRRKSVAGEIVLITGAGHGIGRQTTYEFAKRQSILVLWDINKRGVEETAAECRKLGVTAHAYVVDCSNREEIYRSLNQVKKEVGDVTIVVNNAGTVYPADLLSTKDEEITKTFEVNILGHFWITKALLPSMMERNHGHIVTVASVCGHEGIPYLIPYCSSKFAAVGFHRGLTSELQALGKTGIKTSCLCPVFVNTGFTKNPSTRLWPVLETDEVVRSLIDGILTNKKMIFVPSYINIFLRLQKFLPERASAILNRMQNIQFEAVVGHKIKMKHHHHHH

IC50 [nM]	SMILES
50	COc1ccc2c(c1)C(NC(=O)c1ccc(C(F)(F)F)[nH]c1=O)c1cc(OC)ccc1-2 [Compound 415, N-(2,7-dimethoxy-9H-fluoren-9-yl)-2-oxo-6-(trifluoromethyl)-1,2-dihydropyridine-3-carboxamide]
70	Cc1ccc2c(c1)C(NC(=O)c1ccc(C(F)(F)F)[nH]c1=O)c1cc(C)ccc1-2 [Compound 418, N-(2,7-dimethyl-9H-fluoren-9-yl)-2-oxo-6-(trifluoromethyl)-1,2-dihydropyridine-3-carboxamide]
130	CNc1ccc(C(NC(=O)c2ccc(C(F)(F)F)[nH]c2=O)c2ccc(C)cc2)cc1 (stereo not shown) [Compound 420, N-((4-(methylamino)phenyl)(p-tolyl)methyl)-2-oxo-6-(trifluoromethyl)-1,2-dihydropyridine-3-carboxamide]
790	CC(F)(F)c1ccc(C(=O)NC2c3ccccc3Sc3ccccc32)c(=O)[nH]1 [Compound 423, 6-(1,1-difluoroethyl)-2-oxo-N-(9H-thioxanthen-9-yl)-1,2-dihydropyridine-3-carboxamide]
1140	CC(F)(F)c1ccc(C(=O)NC2c3ccccc3Oc3ccccc32)c(=O)[nH]1 [Compound 424, 6-(1,1-difluoroethyl)-2-oxo-N-(9H-xanthen-9-yl)-1,2-dihydropyridine-3-carboxamide]
270	Cc1ccc2c(c1)S(=O)(=O)c1cc(C)ccc1C2NC(=O)c1cc(N2CCNCC2)c(C(F)(F)F)[nH]c1=O [Compound 425, N-(3,6-dimethyl-10,10-dioxido-9H-thioxanthen-9-yl)-2-oxo-5-(piperazin-1-yl)-6-(trifluoromethyl)-1,2-dihydropyridine-3-carboxamide]
130	Cc1ccc2c(c1)Sc1cc(C)ccc1C2NC(=O)c1cc(N2CCN(C)CC2)c(C(F)(F)F)[nH]c1=O [Compound 427, N-(3,6-dimethyl-9H-thioxanthen-9-yl)-5-(4-methylpiperazin-1-yl)-2-oxo-6-(trifluoromethyl)-1,2-dihydropyridine-3-carboxamide]
20	Cc1ccc2c(c1)S(=O)(=O)c1cc(C)ccc1C2NC(=O)c1cc(NC2CCCCC2)c(C(F)(F)F)[nH]c1=O [Compound 428, 5-(cyclohexylamino)-N-(3,6-dimethyl-10,10-dioxido-9H-thioxanthen-9-yl)-2-oxo-6-(trifluoromethyl)-1,2-dihydropyridine-3-carboxamide]
320	Cc1ccc2c(c1)Oc1cc(C)ccc1C2NC(=O)c1cc(CN2CCNCC2)c(C(F)(F)F)[nH]c1=O [Compound 429, N-(3,6-dimethyl-9H-xanthen-9-yl)-2-oxo-5-(piperazin-1-ylmethyl)-6-(trifluoromethyl)-1,2-dihydropyridine-3-carboxamide]
40	Cc1ccc2c(c1)Oc1cc(C)ccc1C2NC(=O)c1cc(N2CCN(Cc3ccccc3)CC2)c(C(F)(F)F)[nH]c1=O [Compound 430, 5-(4-benzylpiperazin-1-yl)-N-(3,6-dimethyl-9H-xanthen-9-yl)-2-oxo-6-(trifluoromethyl)-1,2-dihydropyridine-3-carboxamide]
130	Cc1ccc2c(c1)Sc1cc(C)ccc1C2NC(=O)c1cc(NC2CCCCC2)c(C(F)(F)F)[nH]c1=O [Compound 431, 5-(cyclohexylamino)-N-(3,6-dimethyl-9H-thioxanthen-9-yl)-2-oxo-6-(trifluoromethyl)-1,2-dihydropyridine-3-carboxamide]
330	Cc1ccc2c(c1)Sc1cc(C)ccc1C2NC(=O)c1cc(N2CCNCC2)c(C(F)(F)F)[nH]c1=O [Compound 432, N-(3,6-dimethyl-9H-thioxanthen-9-yl)-2-oxo-5-(piperazin-1-yl)-6-(trifluoromethyl)-1,2-dihydropyridine-3-carboxamide]
730	Cc1ccc2c(c1)Oc1cc(C)ccc1C2NC(=O)c1cc(NC2CCNCC2)c(C(F)(F)F)[nH]c1=O [Compound 433, N-(3,6-dimethyl-9H-xanthen-9-yl)-2-oxo-5-(piperidin-4-ylamino)-6-(trifluoromethyl)-1,2-dihydropyridine-3-carboxamide]
110	Cc1ccc2c(c1)Oc1cc(C)ccc1C2NC(=O)c1cc(N2CCNCC2)c(C(F)(F)F)[nH]c1=O [Compound 434, N-(3,6-dimethyl-9H-xanthen-9-yl)-2-oxo-5-(piperazin-1-yl)-6-(trifluoromethyl)-1,2-dihydropyridine-3-carboxamide]
1290	Cc1ccc2c(c1)Oc1cccc(C)c1C2NC(=O)c1cc(N2CCCCC2)c(C(F)(F)F)[nH]c1=O (stereo not shown) [Compound 437, N-(1,6-dimethyl-9H-xanthen-9-yl)-2-oxo-5-(piperidin-1-yl)-6-(trifluoromethyl)-1,2-dihydropyridine-3-carboxamide]

The remaining lines, values behind:

SMILES	IC50 [nM]
COc1ccc2c(c1)CC(C)CC2NC(=O)c1ccc(C(F)(F)F)[nH]c1=O (stereo not shown) [Compound 389, N-(6-methoxy-3-methyl-1,2,3,4-tetrahydronaphthalen-1-yl)-2-oxo-6-(trifluoromethyl)-1,2-dihydropyridine-3-carboxamide]	580
Cc1ccc2c(c1)CC(C)CC2NC(=O)c1ccc(C(F)(F)F)[nH]c1=O (stereo not shown) [Compound 391, N-(3,6-dimethyl-1,2,3,4-tetrahydronaphthalen-1-yl)-2-oxo-6-(trifluoromethyl)-1,2-dihydropyridine-3-carboxamide]	50
CCCC1Cc2cc(OC)ccc2C(NC(=O)c2ccc(C(F)(F)F)[nH]c2=O)C1 (stereo not shown) [Compound 392, N-(6-methoxy-3-propyl-1,2,3,4-tetrahydronaphthalen-1-yl)-2-oxo-6-(trifluoromethyl)-1,2-dihydropyridine-3-carboxamide]	80
Cc1ccc2c(c1)C(NC(=O)c1ccc(C(F)(F)F)[nH]c1=O)CS2 (stereo not shown) [Compound 393, N-(5-methyl-2,3-dihydrobenzo[b]thiophen-3-yl)-2-oxo-6-(trifluoromethyl)-1,2-dihydropyridine-3-carboxamide]	1230
Cc1ccc2c(c1)C(NC(=O)c1ccc(C(F)(F)F)[nH]c1=O)CC(C)O2 (stereo not shown) [Compound 394, N-(2,6-dimethylchroman-4-yl)-2-oxo-6-(trifluoromethyl)-1,2-dihydropyridine-3-carboxamide]	260
Cc1ccc2c(c1)OCC2NC(=O)c1ccc(C(F)(F)F)[nH]c1=O (stereo not shown) [Compound 395, N-(6-methyl-2,3-dihydrobenzofuran-3-yl)-2-oxo-6-(trifluoromethyl)-1,2-dihydropyridine-3-carboxamide]	9170
Cc1ccc2c(c1)SCCC2NC(=O)c1ccc(C(F)(F)F)[nH]c1=O (stereo not shown) [Compound 396, N-(7-methylthiochroman-4-yl)-2-oxo-6-(trifluoromethyl)-1H-pyridine-3-carboxamide]	260
Cc1ccc([C@H](NC(=O)c2ccc(C(F)(F)F)[nH]c2=O)[C@@H]2CCCOC2)cc1 [Compound 397, 2-oxo-N—((R)—((S)-tetrahydro-2H-pyran-3-yl)(p-tolyl)methyl)-6-(trifluoromethyl)-1,2-dihydropyridine-3-carboxamide]	2970
Cc1ccc([C@H](NC(=O)c2ccc(C(F)(F)F)[nH]c2=O)[C@H]2CCCOC2)cc1 [Compound 398, 2-oxo-N—((R)—((R)-tetrahydro-2H-pyran-3-yl)(p-tolyl)methyl)-6-(trifluoromethyl)-1,2-dihydropyridine-3-carboxamide]	6150
CC1CCC(C(NC(=O)c2ccc(C(F)(F)F)[nH]c2=O)c2ccccc2)CC1 (stereo not shown) [Compound 399, N-((4-methylcyclohexyl)(phenyl)methyl)-2-oxo-6-(trifluoromethyl)-1,2-dihydropyridine-3-carboxamide]	300
Cc1ccc(C(NC(=O)c2ccc(C(F)(F)F)[nH]c2=O)C2CCC(C)CC2)cc1 (stereo not shown) [Compound 400, N-((4-methylcyclohexyl)(p-tolyl)methyl)-2-oxo-6-(trifluoromethyl)-1,2-dihydropyridine-3-carboxamide]	230
CCCC(NC(=O)c1ccc(C(F)(F)F)[nH]c1=O)c1ccc(C)cc1 (stereo not shown) [Compound 402, 2-oxo-N-(1-(p-tolyl)butyl)-6-(trifluoromethyl)-1,2-dihydropyridine-3-carboxamide]	360
CCCC1CC(NC(=O)c2ccc(C(F)(F)F)[nH]c2=O)c2cc(C)ccc2O1 (stereo not shown) [Compound 403, N-(6-methyl-2-propylchroman-4-yl)-2-oxo-6-(trifluoromethyl)-1,2-dihydropyridine-3-carboxamide]	110
CCC1CC(NC(=O)c2ccc(C(F)(F)F)[nH]c2=O)c2cc(C)ccc2O1 (stereo not shown) [Compound 404, N-(2-ethyl-6-methylchroman-4-yl)-2-oxo-6-(trifluoromethyl)-1,2-dihydropyridine-3-carboxamide]	220
Cc1ccc2c(c1)C(NC(=O)c1ccc(C(F)(F)F)[nH]c1=O)CO2 (stereo not shown) [Compound 408, N-(5-methyl-2,3-dihydrobenzofuran-3-yl)-2-oxo-6-(trifluoromethyl)-1,2-dihydropyridine-3-carboxamide]	2470
COc1ccc2c(c1)Sc1cc(N)ccc1C2NC(=O)c1ccc(C(F)F)[nH]c1=O (stereo not shown) [Compound 410, N-(3-amino-6-methoxy-9H-thioxanthen-9-yl)-6-(difluoromethyl)-2-oxo-1,2-dihydropyridine-3-carboxamide]	430
COc1ccc2c(c1)Sc1cc(N)ccc1C2NC(=O)c1ccc(C(F)(F)F)[nH]c1=O (stereo not shown) [Compound 411, N-(3-amino-6-methoxy-9H-thioxanthen-9-yl)-2-oxo-6-(trifluoromethyl)-1,2-dihydropyridine-3-carboxamide]	80
Cc1ccc(C(CC2CCCC2)NC(=O)c2ccc(C(F)(F)F)[nH]c2=O)cc1 (stereo not shown) [Compound 412, N-(2-cyclopentyl-1-(p-tolyl)ethyl)-2-oxo-6-(trifluoromethyl)-1,2-dihydropyridine-3-carboxamide]	110
O=C(NC1c2cc(OC(F)(F)F)ccc2-c2ccc(OC(F)(F)F)cc21)c1ccc(C(F)(F)F)[nH]c1=O [Compound 413, N-(2,7-bis(trifluoromethoxy)-9H-fluoren-9-yl)-2-oxo-6-(trifluoromethyl)-1,2-dihydropyridine-3-carboxamide]	880

Reference: patent US11957687B2 (REGENERON PHARMACEUTICALS, INC., priority 2019, dated 2024)
